Test system: adults with idiopathic or diabetic gastroparesis
Test: Safety: adverse events, laboratory values, vital signs, Phase 2a
Conditions: for Any Aes, % of subjects / Any Aes, n subjects / Any TEAEs by maximum severity: Mild, % of subjects / Any TEAEs by maximum severity: Mild, n subjects / Any TEAEs by maximum severity: Moderate, % of subjects / Any TEAEs by maximum severity: Moderate, n subjects / Any TEAEs by maximum severity: Severe, % of subjects / Any TEAEs by maximum severity: Severe, n subjects / Any TEAEs leading to death, % of subjects / Any TEAEs leading to death, n subjects / Any TEAEs leading to discontinuation, % of subjects / Any TEAEs leading to discontinuation, n subjects / Any TEAEs, % of subjects / Any TEAEs, e (number of events) / Any TEAEs, n subjects / Any serious TEAEs, % of subjects / Any serious TEAEs, n subjects / Any study drug-related TEAEs by maximum severity: Mild, % of subjects / Any study drug-related TEAEs by maximum severity: Mild, n subjects / Any study drug-related TEAEs by maximum severity: Moderate, % of subjects / Any study drug-related TEAEs by maximum severity: Moderate, n subjects / Any study drug-related TEAEs by maximum severity: Severe, % of subjects / Any study drug-related TEAEs by maximum severity: Severe, n subjects / Any study drug-related TEAEs leading to discontinuation, % of subjects / Any study drug-related TEAEs leading to discontinuation, n subjects / Any study drug-related TEAEs, % of subjects / Any study drug-related TEAEs, n subjects / Any study drug-related serious TEAEs, % of subjects / Any study drug-related serious TEAEs, n subjects / subjects who experienced a TEAE: Safety Population
Procedure: Safety was evaluated through assessments of Aes, vital signs, physical examinations, clinical laboratory evaluations (including prolactin), and ECG findings. Additionally, a single, optional PGx blood sample may have been collected at any time during the subject's participation in the study.
Safety variables included Aes, clinical laboratory results (including prolactin), vital signs, ECGs, and physical examination findings.

## [2H]c1c([2H])c([2H])c2c([nH]c(=O)n2CCCN2CCC(n3c(=O)[nH]c4cc(Cl)ccc43)CC2)c1[2H] [Deudomperidone, 1-{3-[4-(5-chloro-2-oxo-2,3-dihydro-1H-1,3-benzodiazol-1-yl)piperidin-1yl]propyl}-2,3-dihydro(4,5,6,7-D4)-1H-1,3-benzodiazol-2-one]
10 mg BID (N = 30)
  TEAE Nausea, %: (3.3) %
  TEAE Nervous system disorders, %: (0.0) %
  TEAE Palpitations, %: (3.3) %
  TEAE Sinusitis, %: (0.0) %
  TEAE Tinnitus, %: (3.3) %
  TEAE Vomiting, %: (3.3) %
  Any Aes, % of subjects: (23.3) %
  Any Aes, n subjects: 7
  Any TEAEs by maximum severity: Mild, % of subjects: (10.0) %
  Any TEAEs by maximum severity: Mild, n subjects: 3
  Any TEAEs by maximum severity: Moderate, % of subjects: (6.7) %
  Any TEAEs by maximum severity: Moderate, n subjects: 2
  Any TEAEs by maximum severity: Severe, % of subjects: (3.3) %
  Any TEAEs by maximum severity: Severe, n subjects: 1
  Any TEAEs leading to death, % of subjects: (0.0) %
  Any TEAEs leading to death, n subjects: 0
  Any TEAEs leading to discontinuation, % of subjects: (0.0) %
  Any TEAEs leading to discontinuation, n subjects: 0
  Any TEAEs, % of subjects: 20.0%
  Any TEAEs, e (number of events): 11
  Any TEAEs, n subjects: 6
  Any serious TEAEs, % of subjects: (0.0) %
  Any serious TEAEs, n subjects: 0
  Any study drug-related TEAEs by maximum severity: Mild, % of subjects: (13.3) %
  Any study drug-related TEAEs by maximum severity: Mild, n subjects: 4
  Any study drug-related TEAEs by maximum severity: Moderate, % of subjects: (0.0) %
  Any study drug-related TEAEs by maximum severity: Moderate, n subjects: 0
  Any study drug-related TEAEs by maximum severity: Severe, % of subjects: (0.0) %
  Any study drug-related TEAEs by maximum severity: Severe, n subjects: 0
  Any study drug-related TEAEs leading to discontinuation, % of subjects: (0.0) %
  Any study drug-related TEAEs leading to discontinuation, n subjects: 0
  Any study drug-related TEAEs, % of subjects: (13.3) %
  Any study drug-related TEAEs, n subjects: 4
  Any study drug-related serious TEAEs, % of subjects: (0.0) %
  Any study drug-related serious TEAEs, n subjects: 0
10 mg BID
  subjects who experienced a TEAE: 6 (20.0%) subjects (%)
20 mg QD
  TEAE diarrhoea: 1 (6.7%) subjects (%)
  TEAE electrocardiogram QT prolonged: 2 (13.3%) subjects (%)
  TEAE hypoglycaemia: 1 (6.7%) subjects (%)
  TEAEs reported: 8 TEAEs
  other TEAEs, each: constipation, dyspepsia, sinusitis, headache: 1 subject each
  other study drug-related TEAE: headache: 1 subject each
  study drug-related TEAE diarrhoea: 1 (6.7%) subjects (%)
  study drug-related TEAE electrocardiogram QT prolonged: 2 (13.3%) subjects (%)
  study drug-related TEAEs reported: 4 TEAEs
  subjects with study drug-related TEAEs: 4 (26.7) subjects (%)
  subjects who experienced a TEAE: 6 (40.0%) subjects (%)
20 mg QD (N = 15)
  Study drug-related TEAE Abdominal pain lower, %: (0.0) %
  Study drug-related TEAE Blood creatine phosphokinase increased, %: (0.0) %
  Study drug-related TEAE Cardiac disorders, %: (0.0) %
  Study drug-related TEAE Diarrhoea, %: (6.7) %
  Study drug-related TEAE Ear and labyrinth disorders, %: (0.0) %
  Study drug-related TEAE Electrocardiogram QT prolonged, %: (13.3) %
  Study drug-related TEAE Gastrointestinal disorders, %: (6.7) %
  Study drug-related TEAE Headache, %: (6.7) %
  Study drug-related TEAE Investigations, %: (13.3) %
  Study drug-related TEAE Nausea, %: (0.0) %
  Study drug-related TEAE Nervous system disorders, %: (6.7) %
  Study drug-related TEAE Palpitations, %: (0.0) %
  Study drug-related TEAE Tinnitus, %: (0.0) %
  Subjects with any TEAEs, %: 40.0%
  Subjects with any TEAEs, e (events): 8
  Subjects with any study drug-related TEAE, %: 26.7%
  Subjects with any study drug-related TEAE, e (events): 4
  TEAE Abdominal pain lower, %: (0.0) %
  TEAE Arthralgia, %: (0.0) %
  TEAE Back pain, %: (0.0) %
  TEAE Blood creatine phosphokinase increased, %: (0.0) %
  TEAE Cardiac disorders, %: (0.0) %
  TEAE Constipation, %: (6.7) %
  TEAE Decreased appetite, %: (0.0) %
  TEAE Diarrhoea, %: (6.7) %
  TEAE Dyspepsia, %: (6.7) %
  TEAE Ear and labyrinth disorders, %: (0.0) %
  TEAE Electrocardiogram QT prolonged, %: (13.3) %
  TEAE Gastrointestinal disorders, %: (13.3) %
  TEAE Headache, %: (6.7) %
  TEAE Hypoglycaemia, %: (6.7) %
  TEAE Infections and infestations, %: (6.7) %
  TEAE Investigations, %: (13.3) %
  TEAE Metabolism and nutrition disorders, %: (6.7) %
  TEAE Musculoskeletal and connective tissue disorders, %: (0.0) %
  TEAE Nausea, %: (0.0) %
  TEAE Nervous system disorders, %: (6.7) %
  TEAE Palpitations, %: (0.0) %
  TEAE Sinusitis, %: (6.7) %
  TEAE Tinnitus, %: (0.0) %
  TEAE Vomiting, %: (0.0) %
  Any Aes, % of subjects: (40.0) %
  Any Aes, n subjects: 6
  Any TEAEs by maximum severity: Mild, % of subjects: (40.0) %
  Any TEAEs by maximum severity: Mild, n subjects: 6
  Any TEAEs by maximum severity: Moderate, % of subjects: (0.0) %
  Any TEAEs by maximum severity: Moderate, n subjects: 0
  Any TEAEs by maximum severity: Severe, % of subjects: (0.0) %
  Any TEAEs by maximum severity: Severe, n subjects: 0
  Any TEAEs leading to death, % of subjects: (0.0) %
  Any TEAEs leading to death, n subjects: 0
  Any TEAEs leading to discontinuation, % of subjects: (0.0) %
  Any TEAEs leading to discontinuation, n subjects: 0
  Any TEAEs, % of subjects: 40.0%
  Any TEAEs, e (number of events): 8
  Any TEAEs, n subjects: 6
  Any serious TEAEs, % of subjects: (0.0) %
  Any serious TEAEs, n subjects: 0
  Any study drug-related TEAEs by maximum severity: Mild, % of subjects: (26.7) %
  Any study drug-related TEAEs by maximum severity: Mild, n subjects: 4
  Any study drug-related TEAEs by maximum severity: Moderate, % of subjects: (0.0) %
  Any study drug-related TEAEs by maximum severity: Moderate, n subjects: 0
  Any study drug-related TEAEs by maximum severity: Severe, % of subjects: (0.0) %
  Any study drug-related TEAEs by maximum severity: Severe, n subjects: 0
  Any study drug-related TEAEs leading to discontinuation, % of subjects: (0.0) %
  Any study drug-related TEAEs leading to discontinuation, n subjects: 0
  Any study drug-related TEAEs, % of subjects: (26.7) %
  Any study drug-related TEAEs, n subjects: 4
  Any study drug-related serious TEAEs, % of subjects: (0.0) %
  Any study drug-related serious TEAEs, n subjects: 0
All dose groups
  severity of study drug-related TEAEs: mild in severity
All dose groups, 14 days
  deaths, serious TEAEs, discontinuations due to a TEAE: no deaths, serious TEAEs, or discontinuations due to a TEAE
Over treatment period
  changes from baseline in laboratory parameters: no meaningful changes from baseline
